From ChEMBL document CHEMBL5212743, “Selectivity Literature for EUbOPEN Chemogenomics Library wave 3” (2023)
Each block holds one compound with its values, some of them ahead of it.

What was measured:
[1] = target: T1, Gamma-aminobutyric acid receptor subunit alpha-1 (Homo sapiens, UniProt P14867); experiment: Selectivity interaction (GPCR panel (PDSP screen)) EUB0000719a GABRA1
T1 sequence (P14867 whole entry): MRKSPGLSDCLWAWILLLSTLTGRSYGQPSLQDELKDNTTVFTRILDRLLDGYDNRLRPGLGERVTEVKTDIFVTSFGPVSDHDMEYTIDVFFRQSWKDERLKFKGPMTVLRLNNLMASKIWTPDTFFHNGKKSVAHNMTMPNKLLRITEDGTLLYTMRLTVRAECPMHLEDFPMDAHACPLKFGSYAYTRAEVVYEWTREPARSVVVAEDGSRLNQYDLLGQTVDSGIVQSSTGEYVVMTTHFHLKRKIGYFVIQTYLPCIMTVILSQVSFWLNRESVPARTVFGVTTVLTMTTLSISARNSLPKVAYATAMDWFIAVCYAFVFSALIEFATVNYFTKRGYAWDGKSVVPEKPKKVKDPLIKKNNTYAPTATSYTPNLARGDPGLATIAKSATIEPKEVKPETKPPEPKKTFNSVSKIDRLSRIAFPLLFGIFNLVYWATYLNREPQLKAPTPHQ

[2] = target: T1, Gamma-aminobutyric acid receptor subunit alpha-1; experiment: Selectivity interaction (GPCR panel (PDSP screen)) EUB0000720a GABRA1
[3] = target: 5-hydroxytryptamine receptor 2B (Homo sapiens, UniProt P41595); experiment: Selectivity interaction (Lead profiling screen (Eurofins-Panlabs)) EUB0000720a HTR2B; conditions: at 10 µM
5-hydroxytryptamine receptor 2B, sequence (P41595 whole entry): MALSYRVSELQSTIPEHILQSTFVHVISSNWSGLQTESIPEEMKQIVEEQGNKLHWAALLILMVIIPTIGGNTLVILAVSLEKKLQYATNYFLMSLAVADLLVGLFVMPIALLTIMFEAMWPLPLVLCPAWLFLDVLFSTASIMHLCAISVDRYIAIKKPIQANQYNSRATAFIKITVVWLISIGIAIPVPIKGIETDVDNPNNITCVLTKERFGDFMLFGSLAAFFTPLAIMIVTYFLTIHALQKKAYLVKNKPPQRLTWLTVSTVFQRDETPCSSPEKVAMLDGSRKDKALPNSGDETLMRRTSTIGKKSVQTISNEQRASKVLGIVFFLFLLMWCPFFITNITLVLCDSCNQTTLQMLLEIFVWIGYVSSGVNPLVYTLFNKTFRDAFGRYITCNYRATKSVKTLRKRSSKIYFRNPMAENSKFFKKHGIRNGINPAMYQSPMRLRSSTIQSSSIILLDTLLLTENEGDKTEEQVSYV

[4] = target: T2, Sodium/nucleoside cotransporter 2 (Homo sapiens, UniProt O43868); experiment: Selectivity interaction (Enzyme panel (Eurofins-Panlabs radioligand binding assays)) EUB0000751a SLC28A2
T2 sequence (O43868 whole entry): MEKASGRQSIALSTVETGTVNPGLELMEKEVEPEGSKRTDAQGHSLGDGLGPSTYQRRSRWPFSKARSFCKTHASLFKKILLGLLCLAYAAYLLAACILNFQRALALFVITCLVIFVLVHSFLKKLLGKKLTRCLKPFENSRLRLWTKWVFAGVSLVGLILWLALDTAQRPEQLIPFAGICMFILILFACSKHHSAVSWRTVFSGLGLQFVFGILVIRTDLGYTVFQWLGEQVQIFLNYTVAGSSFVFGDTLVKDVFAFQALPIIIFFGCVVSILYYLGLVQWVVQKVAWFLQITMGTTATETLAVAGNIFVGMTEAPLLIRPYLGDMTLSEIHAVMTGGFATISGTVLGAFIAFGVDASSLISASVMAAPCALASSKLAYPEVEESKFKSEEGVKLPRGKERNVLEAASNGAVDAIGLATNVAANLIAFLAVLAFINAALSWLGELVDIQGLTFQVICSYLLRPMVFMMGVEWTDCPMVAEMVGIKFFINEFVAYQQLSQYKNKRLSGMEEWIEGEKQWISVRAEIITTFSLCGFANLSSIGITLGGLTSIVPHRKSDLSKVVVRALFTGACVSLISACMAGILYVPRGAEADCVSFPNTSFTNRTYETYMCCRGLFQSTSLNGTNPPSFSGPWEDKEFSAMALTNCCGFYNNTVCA

[5] = target: RAC-gamma serine/threonine-protein kinase (Homo sapiens) (UniProt Q9Y243); experiment: Selectivity interaction (KinomeScan (DiscoverX)) EUB0000751a AKT3; conditions: at 100 nM
RAC-gamma serine/threonine-protein kinase (Homo sapiens), sequence (Q9Y243 whole entry): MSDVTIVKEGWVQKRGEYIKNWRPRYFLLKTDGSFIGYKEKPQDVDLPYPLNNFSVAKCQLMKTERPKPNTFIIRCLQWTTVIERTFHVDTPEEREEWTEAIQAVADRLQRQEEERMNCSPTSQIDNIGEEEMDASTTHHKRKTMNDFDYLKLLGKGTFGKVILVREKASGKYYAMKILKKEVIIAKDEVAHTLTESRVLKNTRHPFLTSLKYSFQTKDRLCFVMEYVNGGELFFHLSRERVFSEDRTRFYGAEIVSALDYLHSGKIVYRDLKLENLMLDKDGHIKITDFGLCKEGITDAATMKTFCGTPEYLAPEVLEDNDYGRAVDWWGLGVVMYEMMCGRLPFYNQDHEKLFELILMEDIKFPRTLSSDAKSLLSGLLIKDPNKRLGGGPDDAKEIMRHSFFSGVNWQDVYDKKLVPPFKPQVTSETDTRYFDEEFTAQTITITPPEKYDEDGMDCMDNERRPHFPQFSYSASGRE

[6] = target: T2, Sodium/nucleoside cotransporter 2; experiment: Selectivity interaction (Enzyme panel (Eurofins-Panlabs enzyme assay)) EUB0000751a SLC28A2
[7] = target: cGMP-inhibited 3',5'-cyclic phosphodiesterase 3A (Homo sapiens, UniProt Q14432); experiment: Selectivity interaction (PDE panel (enzymatic activity assay)) EUB0000751a PDE3A
cGMP-inhibited 3',5'-cyclic phosphodiesterase 3A, sequence (Q14432 whole entry): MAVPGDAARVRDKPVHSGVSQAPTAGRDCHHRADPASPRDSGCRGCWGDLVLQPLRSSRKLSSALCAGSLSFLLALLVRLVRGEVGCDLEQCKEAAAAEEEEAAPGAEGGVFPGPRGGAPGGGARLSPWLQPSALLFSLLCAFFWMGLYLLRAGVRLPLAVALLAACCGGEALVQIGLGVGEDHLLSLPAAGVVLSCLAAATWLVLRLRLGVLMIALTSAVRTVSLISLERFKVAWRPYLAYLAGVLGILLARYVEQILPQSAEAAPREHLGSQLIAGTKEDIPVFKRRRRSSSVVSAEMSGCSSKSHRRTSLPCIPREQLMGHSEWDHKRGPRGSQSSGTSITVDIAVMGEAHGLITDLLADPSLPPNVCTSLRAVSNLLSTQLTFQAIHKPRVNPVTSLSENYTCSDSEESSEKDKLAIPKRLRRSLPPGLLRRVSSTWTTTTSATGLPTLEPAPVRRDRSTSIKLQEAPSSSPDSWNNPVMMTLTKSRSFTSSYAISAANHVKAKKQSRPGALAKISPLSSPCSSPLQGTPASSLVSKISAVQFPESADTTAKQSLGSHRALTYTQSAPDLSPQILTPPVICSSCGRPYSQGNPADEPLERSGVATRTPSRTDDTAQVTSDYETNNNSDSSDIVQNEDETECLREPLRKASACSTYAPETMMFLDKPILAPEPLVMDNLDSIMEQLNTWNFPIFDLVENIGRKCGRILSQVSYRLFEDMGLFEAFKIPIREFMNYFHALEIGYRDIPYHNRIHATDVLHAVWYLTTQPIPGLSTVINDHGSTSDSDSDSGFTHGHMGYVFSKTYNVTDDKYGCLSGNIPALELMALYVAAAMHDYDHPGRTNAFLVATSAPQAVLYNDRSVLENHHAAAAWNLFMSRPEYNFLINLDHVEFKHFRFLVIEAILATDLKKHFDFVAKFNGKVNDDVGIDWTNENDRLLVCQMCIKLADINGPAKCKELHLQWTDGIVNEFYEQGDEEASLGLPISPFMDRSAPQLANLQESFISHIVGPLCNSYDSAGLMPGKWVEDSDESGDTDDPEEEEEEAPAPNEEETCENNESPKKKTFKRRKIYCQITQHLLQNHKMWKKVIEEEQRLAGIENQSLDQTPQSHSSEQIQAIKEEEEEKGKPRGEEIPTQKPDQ

[8] = target: High affinity 3',5'-cyclic-AMP phosphodiesterase 7A (Homo sapiens, UniProt Q13946); experiment: Selectivity interaction (PDE panel (enzymatic activity assay)) EUB0000751a PDE7A
High affinity 3',5'-cyclic-AMP phosphodiesterase 7A, sequence (Q13946 whole entry): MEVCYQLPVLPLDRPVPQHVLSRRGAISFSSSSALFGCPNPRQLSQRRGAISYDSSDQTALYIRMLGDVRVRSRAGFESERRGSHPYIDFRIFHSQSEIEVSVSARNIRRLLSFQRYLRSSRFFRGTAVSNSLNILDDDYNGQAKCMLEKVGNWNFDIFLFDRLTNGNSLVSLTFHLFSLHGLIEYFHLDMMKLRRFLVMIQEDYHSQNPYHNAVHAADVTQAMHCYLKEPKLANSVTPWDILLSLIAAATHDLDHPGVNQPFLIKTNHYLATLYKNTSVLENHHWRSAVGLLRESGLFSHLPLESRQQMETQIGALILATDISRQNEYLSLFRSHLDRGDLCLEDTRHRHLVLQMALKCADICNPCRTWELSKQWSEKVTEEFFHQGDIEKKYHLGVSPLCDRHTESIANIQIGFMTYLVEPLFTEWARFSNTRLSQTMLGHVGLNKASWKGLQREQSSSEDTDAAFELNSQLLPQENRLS

Ki [1]: 0.375 µM
SMILES: CN1C(=O)[C@@H](N2CCc3cn(Cc4ccccc4)nc3C2=O)COc2ccccc21 [TP-030-1]

Ki [2]: 0.347 µM | % of control [3]: 63%
SMILES: CN1C(=O)[C@@H](N2CCc3c(nn(Cc4ccccc4)c3Br)C2=O)COc2ccccc21 [TP-030-2]

IC50 [4]: 1.61 µM | % of control [5]: 47% | IC50 [6]: 1.61 µM | Ki [7]: > 3300 µM | Ki [8]: > 11.2 µM
SMILES: COCCOc1nc(-c2ccc(Cl)nc2)nc2c1CN(C(=O)c1ncn3ccccc13)CC2 [THPP-1]
